Results reported in DBAASP.
≈ marks a conversion by molar mass, not a printed value. Where “and” joins values, the source holds several entries; their conditions need not be identical. Equal entries are not always repeated. Each block holds one compound with its values, some of them ahead of it.

Tests used:
Experiment in all cases: ≥ marks a high value that may be exact or a test limit, other limits are often not marked, values filed in µg/mL are converted to µM
[1] = system: Klebsiella pneumoniae ATCC 13883
[2] = system: Staphylococcus aureus JE2
[3] = system: Pseudomonas aeruginosa PAO1
[4] = system: Escherichia coli ATCC 25922
Escherichia coli MC1041 = system: Escherichia coli MC1041
Escherichia coli J2210 = system: Escherichia coli J2210
Escherichia coli JJ2489 = system: Escherichia coli JJ2489
[5] = system: Salmonella typhimurium SL1344
[6] = system: Salmonella enterica subsp. enterica serovar Enteritidis MH91989
[7] = system: Escherichia coli JW0368 ΔsbmA
[8] = system: Escherichia coli JW2778 ΔygdD
Escherichia coli JW0013 = system: Escherichia coli JW0013
Escherichia coli BW25113 = system: Escherichia coli BW25113
[9] = system: Proteus vulgaris ATCC 6380
[10] = system: Candida albicans ATCC 36232
[11] = system: Micrococcus luteus ATCC 9341
[12] = system: Escherichia coli ATCC 2592
[13] = system: Staphylococcus aureus ATCC 6538
Staphylococcus aureus = system: Staphylococcus aureus
[14] = system: Pseudomonas aeruginosa ATCC 9027
[15] = system: Staphylococcus aureus M838-17
[16] = system: Staphylococcus aureus USA 300 LAC
[17] = system: Klebsiella pneumoniae E406-17
[18] = system: Pseudomonas aeruginosa E411-17
[19] = system: Staphylococcus aureus ATCC 29213
[20] = system: Staphylococcus aureus ATCC 25923
[21] = system: Candida parapsilosis CGMCC 2.3989
[22] = system: Lactiplantibacillus plantarum 8014
[23] = system: Salmonella enterica subsp. enterica serovar Typhimurium C77-31
[24] = system: Lacticaseibacillus rhamnosus 7469
[25] = system: Candida albicans CGMCC 2.2086
[26] = system: Staphylococcus epidermidis ATCC 12228
[27] = system: Candida tropicalis CGMCC 2.1975
[28] = system: Salmonella enterica subsp. enterica serovar Typhimurium ATCC 14028
[29] = system: Staphylococcus aureus NCTC 10788
[30] = system: Escherichia coli NCTC 10418
[31] = system: Candida albicans NCPF 1467

MIC [1]: 25 µM (≈ 37.3 µg/mL)
MIC [2]: 1.56 µM (≈ 2.33 µg/mL)
MIC [3]: > 25 µM
MIC [4]: > 25 µM
Structure (SMILES): CC(C)C[C@H](NC(=O)[C@H](CC(C)C)NC(=O)[C@H](CCCCN)NC(=O)[C@H](CC(C)C)NC(=O)CNC(=O)[C@H](CC(C)C)NC(=O)[C@H](CCCCN)NC(=O)[C@H](CC(C)C)NC(=O)[C@H](CC(C)C)NC(=O)[C@H](CC(C)C)NC(=O)[C@H](CCCCN)NC(=O)[C@H](CC(C)C)NC(=O)[C@@H](N)CCCCN)C(N)=O [KLKLLLKLGLKLL]

MIC (Escherichia coli MC1041): 0.06 µM (≈ 0.121 µg/mL)
MIC (Escherichia coli J2210): 0.12 µM (≈ 0.242 µg/mL)
MIC (Escherichia coli JJ2489): 0.12 µM (≈ 0.242 µg/mL)
MIC [5]: 0.12 µM (≈ 0.242 µg/mL)
MIC [6]: 0.157 µM (≈ 0.317 µg/mL)
MIC [7]: 0.06 µM (≈ 0.121 µg/mL)
MIC [8]: 0.12 µM (≈ 0.242 µg/mL)
MIC (Escherichia coli JW0013): 0.06 µM (≈ 0.121 µg/mL)
MIC (Escherichia coli BW25113): 0.06 µM (≈ 0.121 µg/mL)
Structure (SMILES): CC[C@H](C)[C@H](NC(=O)[C@H](CCCN=C(N)N)NC(=O)[C@@H](N)CCCN=C(N)N)C(=O)N[C@@H](CCCCN)C(=O)N1CCC[C@H]1C(=O)N[C@@H](CCCN=C(N)N)C(=O)N1CCC[C@H]1C(=O)N1CCC[C@H]1C(=O)N[C@@H](CCCN=C(N)N)C(=O)N[C@@H](CC(C)C)C(=O)N1CCC[C@H]1C(=O)N[C@@H](CCCN=C(N)N)C(=O)N1CCC[C@H]1C(=O)N[C@@H](CCCN=C(N)N)C(=O)N1CCC[C@H]1C(=O)N[C@@H](CCCCN)C(=O)O [RRIKPRPPRLPRPRPK]

MIC [9]: ≥ 37.3 µM
MIC [10]: 1.16 µM (≈ 3.12 µg/mL)
MIC [11]: 1.16 µM (≈ 3.12 µg/mL)
MIC [12]: 2.33 µM (≈ 6.25 µg/mL)
MIC [13]: 2.33 µM (≈ 6.25 µg/mL)
MIC (Staphylococcus aureus): 2.33 µM (≈ 6.25 µg/mL)
MIC [14]: 1.16 µM (≈ 3.12 µg/mL)
Structure (SMILES): CC[C@H](C)[C@H](NC(=O)[C@H](CCCCN)NC(=O)[C@@H]1CCCN1C(=O)[C@H](CC(C)C)NC(=O)[C@H](Cc1ccccc1)NC(=O)[C@H](CC(N)=O)NC(=O)[C@H](C)NC(=O)[C@H](C)NC(=O)[C@H](CC(C)C)NC(=O)CNC(=O)[C@H](C)NC(=O)[C@H](CC(C)C)NC(=O)[C@H](CC(C)C)NC(=O)[C@@H]1CCCN1C(=O)[C@H](CC(C)C)NC(=O)[C@@H](N)Cc1ccccc1)C(=O)N[C@@H](Cc1ccccc1)C(=O)N[C@@H](CS)C(=O)N[C@@H](CCCCN)C(=O)N[C@H](C(=O)N[C@H](C(=O)N[C@@H](CCCN=C(N)N)C(=O)N[C@@H](CCCCN)C(=O)N[C@@H](CS)C(N)=O)[C@@H](C)O)[C@@H](C)CC [FLPLLAGLAANFLPKIFCKITRKC]

MIC [1]: 4.38 µM (≈ 5.58 µg/mL)
MIC [15]: 8.8 µM (≈ 11.2 µg/mL)
MIC [16]: 4.38 µM (≈ 5.58 µg/mL)
MIC [17]: 12.5 µM (≈ 15.9 µg/mL)
MIC [18]: ≥ 50 µM
MIC [4]: 6.2 µM (≈ 7.89 µg/mL)
Structure (SMILES): CC[C@H](C)[C@H](NC(=O)[C@H](CCCCN)NC(=O)[C@@H](N)CCCN=C(N)N)C(=O)N[C@@H](Cc1c[nH]c2ccccc12)C(=O)N[C@@H](Cc1c[nH]c2ccccc12)C(=O)N[C@@H](Cc1c[nH]c2ccccc12)C(=O)N[C@@H](Cc1c[nH]c2ccccc12)C(=O)N[C@@H](CC(C)C)C(N)=O [RKIWWWWL]

MIC [19]: > 64 µM
MIC [20]: > 64 µM
MIC [21]: ≥ 64 µM
MIC [23]: ≥ 64 µM
MIC [24]: ≥ 64 µM
MIC [25]: ≥ 64 µM
MIC [26]: > 64 µM
MIC [27]: 8 µM (≈ 28.6 µg/mL)
MIC [28]: > 64 µM
Structure (SMILES): CC[C@H](C)[C@H](N)C(=O)N[C@@H](Cc1cnc[nH]1)C(=O)N[C@@H](Cc1cnc[nH]1)C(=O)N[C@H](C(=O)N[C@@H](Cc1cnc[nH]1)C(=O)N[C@@H](Cc1cnc[nH]1)C(=O)N[C@H](C(=O)N[C@H](C(=O)N[C@@H](Cc1cnc[nH]1)C(=O)N[C@@H](Cc1cnc[nH]1)C(=O)N[C@H](C(=O)N[C@@H](Cc1cnc[nH]1)C(=O)N[C@@H](Cc1cnc[nH]1)C(=O)N[C@H](C(=O)N[C@H](C(=O)N[C@@H](Cc1cnc[nH]1)C(=O)N[C@@H](Cc1cnc[nH]1)C(=O)N[C@H](C(=O)N[C@@H](Cc1cnc[nH]1)C(=O)N[C@@H](Cc1cnc[nH]1)C(=O)N[C@H](C(=O)N[C@H](C(=O)N[C@@H](Cc1cnc[nH]1)C(=O)N[C@@H](Cc1cnc[nH]1)C(=O)N[C@H](C(=O)N[C@@H](Cc1cnc[nH]1)C(=O)N[C@@H](Cc1cnc[nH]1)C(=O)N[C@H](C(N)=O)[C@@H](C)CC)[C@@H](C)CC)[C@@H](C)CC)[C@@H](C)CC)[C@@H](C)CC)[C@@H](C)CC)[C@@H](C)CC)[C@@H](C)CC)[C@@H](C)CC)[C@@H](C)CC)[C@@H](C)CC [IHHIHHIIHHIHHIIHHIHHIIHHIHHI]
MIC [22]: 2 µM (≈ 7.14 µg/mL)

MIC [29]: 3.12 µM (≈ 8 µg/mL)
MIC [30]: 12.5 µM (≈ 32 µg/mL)
MIC [31]: 3.12 µM (≈ 8 µg/mL)
Structure (SMILES): CC[C@H](C)[C@H](NC(=O)[C@H](C)NC(=O)[C@@H]1CCCN1C(=O)[C@H](CC(C)C)NC(=O)[C@@H](N)Cc1ccccc1)C(=O)N[C@@H](C)C(=O)NCC(=O)N[C@@H](CC(C)C)C(=O)N[C@@H](C)C(=O)N[C@@H](C)C(=O)N[C@@H](CCCCN)C(=O)N[C@@H](Cc1ccccc1)C(=O)N[C@@H](CC(C)C)C(=O)N1CCC[C@H]1C(=O)N[C@@H](CCCCN)C(=O)N[C@H](C(=O)N[C@@H](Cc1ccccc1)C(=O)N[C@H]1CSSC[C@@H](C(=O)O)NC(=O)[C@H](CCCCN)NC(=O)[C@H](CCCCN)NC(=O)[C@H]([C@@H](C)O)NC(=O)[C@H]([C@@H](C)CC)NC(=O)[C@H](C)NC1=O)[C@@H](C)CC [FLPAIAGLAAKFLPKIFCAITKKC]

MIC [29]: 8 µM (≈ 15.6 µg/mL)
MIC [30]: ≥ 250 µM
MIC [31]: 16 µM (≈ 31.1 µg/mL)
Structure (SMILES): CC[C@H](C)[C@H](NC(=O)[C@H](C)NC(=O)[C@H](Cc1cnc[nH]1)NC(=O)[C@@H]1CCCN1C(=O)[C@@H](NC(=O)[C@H](CC(C)C)NC(=O)[C@H](CO)NC(=O)[C@H](Cc1ccccc1)NC(=O)[C@H](CC(C)C)NC(=O)[C@@H](N)Cc1ccccc1)[C@@H](C)CC)C(=O)N[C@@H](CO)C(=O)NCC(=O)N[C@@H](CC(C)C)C(=O)N[C@H](C(=O)N[C@@H](CO)C(=O)N[C@@H](C)C(=O)N[C@@H](Cc1ccccc1)C(=O)N[C@H](C=O)CCCCN)[C@@H](C)CC [FLFSLIPHAISGLISAFK]

MIC [19]: > 64 µM
MIC [20]: > 64 µM
MIC [21]: 4 µM (≈ 7.17 µg/mL)
MIC [24]: ≥ 64 µM
MIC [25]: 8 µM (≈ 14.3 µg/mL)
MIC [26]: > 64 µM
MIC [27]: 1 µM (≈ 1.79 µg/mL)
MIC [28]: 32 µM and 64 µM
Structure (SMILES): CC[C@H](C)[C@H](N)C(=O)N[C@@H](Cc1cnc[nH]1)C(=O)N[C@@H](Cc1cnc[nH]1)C(=O)N[C@H](C(=O)N[C@@H](Cc1cnc[nH]1)C(=O)N[C@@H](Cc1cnc[nH]1)C(=O)N[C@H](C(=O)N[C@H](C(=O)N[C@@H](Cc1cnc[nH]1)C(=O)N[C@@H](Cc1cnc[nH]1)C(=O)N[C@H](C(=O)N[C@@H](Cc1cnc[nH]1)C(=O)N[C@@H](Cc1cnc[nH]1)C(=O)N[C@H](C(N)=O)[C@@H](C)CC)[C@@H](C)CC)[C@@H](C)CC)[C@@H](C)CC)[C@@H](C)CC [IHHIHHIIHHIHHI]
MIC [22]: ≥ 64 µM
